# Where “and” joins values, the source holds several entries; their conditions need not be identical. Identical values can stand only once. Like-named read-outs stand apart in the source and are kept apart here.
# Tests used:
# C. elegans = C. elegans chemical screens of RIKEN NPD libraries at 50 μM (hit identification in KCN survival and development/viability assays); type: cell-based, Caenorhabditis elegans; details: screened at 50 μM in triplicate, KCN = KCN survival assay, Dev. & Viability = development/viability assay
# L1 wild-type C. elegans [1] = assay: whole plant or invertebrate; details: Caenorhabditis elegans, 15 h
# in vitro = details: human
# HEK293 cells = details: human, 2 days, 6.3 µM
# L1 wild-type C. elegans [2] = assay: 15-hour motility assay with drug alone (no KCN); type: cell-based, Caenorhabditis elegans; details: without KCN, 15-hour; for Value relative to DMSO control, drug alone (without KCN), Mean: mean of replicates; for Value relative to DMSO control, drug alone (without KCN): single replicates
# L1 wild-type C. elegans [3] = details: for KCN survival assay value relative to DMSO control, Mean / KCN survival assay value relative to DMSO control: drug + KCN, 15-hour; for KCN survival assay value relative to DMSO control, Mean: mean of replicates; for KCN survival assay value relative to DMSO control: single replicates
# H. polygyrus = details: single dose 1 mg/kg, mice; cited from earlier work
# [4] = read-out: C. elegans KCN Survival Assay LC50
# [5] = read-out: C. elegans KCN survival assay LC50
structure (smiles),measurement,setting,value
"CCCC/C=C\C/C=C\CCCCCCCCc1cccc(O)c1C(=O)O [6-heptadeca-9Z,12Z-dienyl salicylic acid]",Hit Type,C. elegans; […],KCN
same,LC50,L1 wild-type C. elegans [1]; [4],3970 nM
Fc1ccc(C(c2ccc(F)cc2)N2CCN(C/C=C/c3ccccc3)CC2)cc1 [Flunarizine],Hit Type,C. elegans; hit = modified z-score < −3,KCN
same,CC50 at 2 days,in vitro; HEK293 Cell Viability Assay LC50,30200 nM
same,viability,in vitro; HEK293 viability,92.6%
same,"viability at 2 days, 0.4 µM",in vitro; HEK293 viability,88.1%
same,"viability at 2 days, 0.8 µM",in vitro; HEK293 viability,81.5%
same,"viability at 2 days, 6.3 µM",in vitro; HEK293 viability,100%
same,"viability at 2 days, 12.5 µM",in vitro; HEK293 viability,99.4%
same,"viability at 2 days, 50 µM",in vitro; HEK293 viability,17.1%
same,HEK293 viability,HEK293 cells,1.000
same,LC50,L1 wild-type C. elegans [1]; [4],22000 nM
O=C(Nc1ccc([N+](=O)[O-])cc1Cl)c1cc(Cl)ccc1O [Niclosamide],"Value relative to DMSO control, drug alone (without KCN), Mean",L1 wild-type C. elegans [2]; 0.025 µM,1.071
same,"Value relative to DMSO control, drug alone (without KCN)",L1 wild-type C. elegans [2]; 0.025 µM,0.995 and 1.216 and 1.349 and 0.779 and 1.019
same,"Value relative to DMSO control, drug alone (without KCN), Mean",L1 wild-type C. elegans [2]; 0.05 µM,1.075
same,"Value relative to DMSO control, drug alone (without KCN)",L1 wild-type C. elegans [2]; 0.05 µM,1.004 and 1.000 and 1.245 and 1.142 and 0.983
same,"Value relative to DMSO control, drug alone (without KCN), Mean",L1 wild-type C. elegans [2]; 0.1 µM,0.944
same,"Value relative to DMSO control, drug alone (without KCN)",L1 wild-type C. elegans [2]; 0.1 µM,0.881 and 0.705 and 1.000 and 1.091 and 1.040
same,"Value relative to DMSO control, drug alone (without KCN), Mean",L1 wild-type C. elegans [2]; 0.2 µM,0.857
same,"Value relative to DMSO control, drug alone (without KCN)",L1 wild-type C. elegans [2]; 0.2 µM,0.621 and 0.780 and 0.965 and 0.960 and 0.957
same,"Value relative to DMSO control, drug alone (without KCN), Mean",L1 wild-type C. elegans [2]; 0.4 µM,0.828
same,"Value relative to DMSO control, drug alone (without KCN)",L1 wild-type C. elegans [2]; 0.4 µM,0.811 and 0.792 and 0.740 and 0.844 and 0.957
same,"Value relative to DMSO control, drug alone (without KCN), Mean",L1 wild-type C. elegans [2]; 0.8 µM,0.938
same,"Value relative to DMSO control, drug alone (without KCN)",L1 wild-type C. elegans [2]; 0.8 µM,0.966 and 0.718 and 0.993 and 1.008 and 1.003
same,"Value relative to DMSO control, drug alone (without KCN), Mean",L1 wild-type C. elegans [2]; 3.1 µM,0.892
same,"Value relative to DMSO control, drug alone (without KCN)",L1 wild-type C. elegans [2]; 3.1 µM,0.775 and 0.855 and 0.898 and 1.068 and 0.863
same,"Value relative to DMSO control, drug alone (without KCN), Mean",L1 wild-type C. elegans [2]; 6.3 µM,0.921
same,"Value relative to DMSO control, drug alone (without KCN)",L1 wild-type C. elegans [2]; 6.3 µM,0.820 and 1.003 and 0.834 and 0.940 and 1.007
same,"Value relative to DMSO control, drug alone (without KCN), Mean",L1 wild-type C. elegans [2]; 12.5 µM,1.018
same,"Value relative to DMSO control, drug alone (without KCN)",L1 wild-type C. elegans [2]; 12.5 µM,0.937 and 0.884 and 0.971 and 1.234 and 1.065
same,"Value relative to DMSO control, drug alone (without KCN), Mean",L1 wild-type C. elegans [2]; 25 µM,0.884
same,"Value relative to DMSO control, drug alone (without KCN)",L1 wild-type C. elegans [2]; 25 µM,0.851 and 0.847 and 1.014 and 1.053 and 0.655
same,Hit Type,C. elegans; hit = modified z-score < −3,KCN
same,"C. elegans L1 relative motility, 3-hour post 200 µM KCN dilution","L1 wild-type C. elegans [3]; dose 0.05 µM, Mean of replicates",1.030
same,"C. elegans L1 relative motility, 3-hour post 200 µM KCN dilution","L1 wild-type C. elegans [3]; dose 0.05 µM, individual replicate (Rep)",1.077 and 0.962 and 1.145
same,"C. elegans L1 relative motility, 3-hour post 200 µM KCN dilution","L1 wild-type C. elegans [3]; dose 0.1 µM, Mean of replicates",0.412
same,"C. elegans L1 relative motility, 3-hour post 200 µM KCN dilution","L1 wild-type C. elegans [3]; dose 0.1 µM, individual replicate (Rep)",0.940 and 1.178 and 0.971
same,"C. elegans L1 relative motility, 3-hour post 200 µM KCN dilution","L1 wild-type C. elegans [3]; dose 0.2 µM, individual replicate (Rep)",0.475 and 0.408 and 0.354
same,"C. elegans L1 relative motility, 3-hour post 200 µM KCN dilution","L1 wild-type C. elegans [3]; dose 0.8 µM, Mean of replicates",0.011
same,"C. elegans L1 relative motility, 3-hour post 200 µM KCN dilution","L1 wild-type C. elegans [3]; dose 3.1 µM, Mean of replicates",0.006
same,"C. elegans L1 relative motility, 3-hour post 200 µM KCN dilution","L1 wild-type C. elegans [3]; dose 3.1 µM, individual replicate (Rep)",0.000
same,"C. elegans L1 relative motility, 3-hour post 200 µM KCN dilution","L1 wild-type C. elegans [3]; dose 6.3 µM, Mean of replicates",0.039
same,"C. elegans L1 relative motility, 3-hour post 200 µM KCN dilution","L1 wild-type C. elegans [3]; dose 12.5 µM, Mean of replicates",0.0056
same,"C. elegans L1 relative motility, 3-hour post 200 µM KCN dilution","L1 wild-type C. elegans [3]; dose 25 µM, Mean of replicates",0.020
same,"C. elegans L1 relative motility, 3-hour post 200 µM KCN dilution","L1 wild-type C. elegans [3]; dose […], Mean of replicates",0.000
same,"KCN survival assay value relative to DMSO control, Mean",L1 wild-type C. elegans [3]; 0.025 µM,1.061
same,KCN survival assay value relative to DMSO control,L1 wild-type C. elegans [3]; 0.025 µM,0.962 and 1.145 and 1.077
same,"KCN survival assay value relative to DMSO control, Mean",L1 wild-type C. elegans [3]; 0.05 µM,1.030
same,KCN survival assay value relative to DMSO control,L1 wild-type C. elegans [3]; 0.05 µM,1.178 and 0.971 and 0.940
same,"KCN survival assay value relative to DMSO control, Mean",L1 wild-type C. elegans [3]; 0.1 µM,0.412
same,KCN survival assay value relative to DMSO control,L1 wild-type C. elegans [3]; 0.1 µM,0.408 and 0.354 and 0.475
same,"KCN survival assay value relative to DMSO control, Mean",L1 wild-type C. elegans [3]; 0.2 µM,0.114
same,"KCN survival assay value relative to DMSO control, Mean",L1 wild-type C. elegans [3]; 0.4 µM,0.0075
same,"KCN survival assay value relative to DMSO control, Mean",L1 wild-type C. elegans [3]; 0.8 µM,0.011
same,"KCN survival assay value relative to DMSO control, Mean",L1 wild-type C. elegans [3]; 3.1 µM,0.006
same,"KCN survival assay value relative to DMSO control, Mean",L1 wild-type C. elegans [3]; 6.3 µM,0.039
same,"KCN survival assay value relative to DMSO control, Mean",L1 wild-type C. elegans [3]; 12.5 µM,0.0056
same,"KCN survival assay value relative to DMSO control, Mean",L1 wild-type C. elegans [3]; 25 µM,0.020
same,LC50,L1 wild-type C. elegans [1]; [4],95 nM
same,LC50,L1 wild-type C. elegans [1]; [5],94.8 nM
O=C(Nc1ccc(Oc2ccc(Cl)cc2)c(Cl)c1)c1cc(I)cc(I)c1O [Rafoxanide],"Value relative to DMSO control, drug alone (without KCN), Mean",L1 wild-type C. elegans [2]; 0.025 µM,1.251
same,"Value relative to DMSO control, drug alone (without KCN)",L1 wild-type C. elegans [2]; 0.025 µM,1.299 and 1.275 and 1.179
same,"Value relative to DMSO control, drug alone (without KCN), Mean",L1 wild-type C. elegans [2]; 0.05 µM,1.063
same,"Value relative to DMSO control, drug alone (without KCN)",L1 wild-type C. elegans [2]; 0.05 µM,1.000 and 1.187
same,"Value relative to DMSO control, drug alone (without KCN), Mean",L1 wild-type C. elegans [2]; 0.1 µM,0.952
same,"Value relative to DMSO control, drug alone (without KCN)",L1 wild-type C. elegans [2]; 0.1 µM,0.779 and 1.140 and 0.937
same,"Value relative to DMSO control, drug alone (without KCN), Mean",L1 wild-type C. elegans [2]; 0.2 µM,0.871
same,"Value relative to DMSO control, drug alone (without KCN)",L1 wild-type C. elegans [2]; 0.2 µM,0.876 and 1.068 and 0.668
same,"Value relative to DMSO control, drug alone (without KCN), Mean",L1 wild-type C. elegans [2]; 0.4 µM,0.805
same,"Value relative to DMSO control, drug alone (without KCN)",L1 wild-type C. elegans [2]; 0.4 µM,0.814 and 0.980 and 0.622
same,"Value relative to DMSO control, drug alone (without KCN), Mean",L1 wild-type C. elegans [2]; 0.8 µM,0.942
same,"Value relative to DMSO control, drug alone (without KCN)",L1 wild-type C. elegans [2]; 0.8 µM,0.867 and 0.978 and 0.981
same,"Value relative to DMSO control, drug alone (without KCN), Mean",L1 wild-type C. elegans [2]; 3.1 µM,0.954
same,"Value relative to DMSO control, drug alone (without KCN)",L1 wild-type C. elegans [2]; 3.1 µM,1.089 and 0.794 and 0.978
same,"Value relative to DMSO control, drug alone (without KCN), Mean",L1 wild-type C. elegans [2]; 6.3 µM,1.113
same,"Value relative to DMSO control, drug alone (without KCN)",L1 wild-type C. elegans [2]; 6.3 µM,1.082 and 1.203 and 1.055
same,"Value relative to DMSO control, drug alone (without KCN), Mean",L1 wild-type C. elegans [2]; 12.5 µM,1.298
same,"Value relative to DMSO control, drug alone (without KCN)",L1 wild-type C. elegans [2]; 12.5 µM,1.422 and 1.293 and 1.177
same,"Value relative to DMSO control, drug alone (without KCN), Mean",L1 wild-type C. elegans [2]; 25 µM,1.108
same,"Value relative to DMSO control, drug alone (without KCN)",L1 wild-type C. elegans [2]; 25 µM,1.103 and 1.144 and 1.075
same,"KCN survival assay value relative to DMSO control, Mean",L1 wild-type C. elegans [3]; 0.025 µM,0.992
same,KCN survival assay value relative to DMSO control,L1 wild-type C. elegans [3]; 0.025 µM,1.081 and 1.011 and 0.883
same,"KCN survival assay value relative to DMSO control, Mean",L1 wild-type C. elegans [3]; 0.05 µM,0.890
same,KCN survival assay value relative to DMSO control,L1 wild-type C. elegans [3]; 0.05 µM,0.979 and 0.794 and 0.899
same,"KCN survival assay value relative to DMSO control, Mean",L1 wild-type C. elegans [3]; 0.1 µM,0.788
same,KCN survival assay value relative to DMSO control,L1 wild-type C. elegans [3]; 0.1 µM,1.030 and 0.770 and 0.563
same,"KCN survival assay value relative to DMSO control, Mean",L1 wild-type C. elegans [3]; 0.2 µM,0.261
same,"KCN survival assay value relative to DMSO control, Mean",L1 wild-type C. elegans [3]; 0.4 µM,0.0026
same,"KCN survival assay value relative to DMSO control, Mean",L1 wild-type C. elegans [3]; 0.8 µM,0.0007
same,"KCN survival assay value relative to DMSO control, Mean",L1 wild-type C. elegans [3]; 3.1 µM,0.000
same,KCN survival assay value relative to DMSO control,L1 wild-type C. elegans [3]; 3.1 µM,0.000
same,"KCN survival assay value relative to DMSO control, Mean",L1 wild-type C. elegans [3]; 6.3 µM,0.0019
same,"KCN survival assay value relative to DMSO control, Mean",L1 wild-type C. elegans [3]; 12.5 µM,0.000
same,KCN survival assay value relative to DMSO control,L1 wild-type C. elegans [3]; 12.5 µM,0.000
same,"KCN survival assay value relative to DMSO control, Mean",L1 wild-type C. elegans [3]; 25 µM,0.000
same,KCN survival assay value relative to DMSO control,L1 wild-type C. elegans [3]; 25 µM,0.000
same,LC50,L1 wild-type C. elegans [1]; [5],141 nM
CO/N=C1\C[C@]2(C[C@@H]3C[C@@H](C/C=C(\C)C[C@@H](C)/C=C/C=C4\CO[C@@H]5[C@H](O)C(C)=C[C@@H](C(=O)O3)[C@]45O)O2)O[C@H](/C(C)=C/C(C)C)[C@H]1C [moxidectin],reduction in H. polygyrus worm burden,H. polygyrus,99%

# From publication PMC11079024, “Identification of a family of species-selective complex I inhibitors as potential anthelmintics” (Nature Communications, 2024)
